Consider nine compounds from patent US20160068466A1, “ESTER DERIVATIVES OF ANDROGEN RECEPTOR MODULATORS AND METHODS FOR THEIR USE” (The University of British Columbia, priority 2013, published 2016).

Each structure is given as a SMILES string. Read-outs that look alike come from different tables or passages of the source.

The target of one assay is T1, androgen receptor (Homo sapiens, UniProt P10275, T878A).
T1 construct: LNCaP cells express endogenous AR; endogenous in cells; host or cells: LNCaP
T1 sequence (P10275 1-920 T878A): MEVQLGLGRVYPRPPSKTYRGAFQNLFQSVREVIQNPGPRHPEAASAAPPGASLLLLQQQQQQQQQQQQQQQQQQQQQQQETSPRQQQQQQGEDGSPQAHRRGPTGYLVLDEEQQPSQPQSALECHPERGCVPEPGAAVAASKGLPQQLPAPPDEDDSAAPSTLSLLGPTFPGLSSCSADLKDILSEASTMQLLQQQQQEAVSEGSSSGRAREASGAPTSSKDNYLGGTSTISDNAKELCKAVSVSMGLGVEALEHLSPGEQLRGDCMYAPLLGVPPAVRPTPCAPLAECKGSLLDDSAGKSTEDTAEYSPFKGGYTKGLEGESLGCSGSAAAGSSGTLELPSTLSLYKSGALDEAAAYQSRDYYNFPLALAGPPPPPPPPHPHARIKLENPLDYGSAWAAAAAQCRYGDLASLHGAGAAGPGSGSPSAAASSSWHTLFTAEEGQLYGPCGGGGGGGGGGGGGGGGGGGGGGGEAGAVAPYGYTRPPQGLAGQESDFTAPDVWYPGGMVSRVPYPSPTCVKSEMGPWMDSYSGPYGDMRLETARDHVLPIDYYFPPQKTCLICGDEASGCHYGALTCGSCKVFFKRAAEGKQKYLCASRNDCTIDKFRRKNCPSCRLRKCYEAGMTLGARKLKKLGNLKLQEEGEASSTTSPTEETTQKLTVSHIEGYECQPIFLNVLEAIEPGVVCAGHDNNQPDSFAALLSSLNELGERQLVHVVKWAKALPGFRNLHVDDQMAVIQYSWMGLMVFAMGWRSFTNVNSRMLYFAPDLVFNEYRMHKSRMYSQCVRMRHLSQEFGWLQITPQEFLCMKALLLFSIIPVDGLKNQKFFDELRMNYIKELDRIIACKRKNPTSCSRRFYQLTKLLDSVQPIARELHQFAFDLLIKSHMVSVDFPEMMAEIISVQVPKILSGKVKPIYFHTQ
The assay is described as follows: PSA(6.1 kb)-luciferase reporter assay in LNCaP cells induced with R1881. Type of assay: cell-based. The text has this:
LNCaP cells were employed for experiments because they are well-differentiated human prostate cancer cells in which ligand-dependent and ligand-independent activation of AR by FSK has been characterized (Nazareth et al 1996 J. Biol. Chem. 271, 19900-19907; and Sadar 1999 J Biol. Chem. 274, 7777-7783). LNCaP cells express endogenous AR and secrete prostate-specific antigen (PSA) (Horoszewicz et al 1983 Cancer Res. 43, 1809-1818). LNCaP cells can be grown either as monolayers in cell culture or as tumors in the well-characterized xenograft model that progresses to castration-resistant prostate cancer (CRPC) in castrated hosts (Sato et al 1996 J. Steroid Biochem. Mol. Biol. 58, 139-146; Gleave et al 1991 Cancer Res. 51, 3753-3761; Sato et al 1997 Cancer Res. 57, 1584-1589; and Sadar et al 2002 Mol. Cancer Ther. 1(8), 629-637). R1881 (a synthetic androgen) is employed since it is stable and avoids problems associated with the labile physiological ligand dihydrotestosterone (DHT).
One well characterized ARE-driven reporter gene construct that has been used extensively is the PSA (6.1 kb) enhance/promoter which contains several AREs and is highly inducible by androgens as well as by FSK (Ueda et al 2002 A J. Biol. Chem. 277, 7076-7085).
LNCaP (2.4×10^4 cell/well) cells were seeded on 24-well plates overnight before transfection with PSA(6.1 kb)-luciferase plasmid (0.25 ug/well) in serum-free, red phenol-free media. The next day, cells were pre-treated with compounds of the disclosure for 1 hour before the addition of synthetic androgen, R1881 (1 nM) to trans activate the androgen receptor. After 48 h of incubation with R1881, the cells were harvested, and relative luciferase activity was determined as a read-out for androgen receptor transcriptional activity. Test compounds were added to the cells at various concentrations and activity for each treatment was normalized to the predicted maximal activity induction (in the absence of test compounds, vehicle only). Transfection experiments were performed using triplicate wells.
Further experiments, as outlined in Example 22, were conducted with LNCaP cells transfected with PSA-luciferase plasmid to evaluate the dose response of particular compounds of the disclosure.
A general note: A reporter such as luciferase makes a cellular process visible.

A further assay deals with LNCaP cells. The assay is described as follows: AlamarBlue proliferation assay, androgen-dependent proliferation of LNCaP cells in response to R1881. Type of assay: cell-based, human. Conditions: 0.1 nM R1881, 3 days, FIG. 10. On the procedure: Protocol: Proliferation assays using AlamarBlue, wherein the % androgen-dependent proliferation represents proliferation of LNCaP cells in response to R1881 compared to basal levels.
PC3 and LNCaP cells were plated in 96-well plates in respective media plus 0.5% FBS. […] Cell viability was measured using alamarBlue Cell Viability Assay (Invitrogen) following the manufacturer's protocol.
In general terms: Alamar Blue is a resazurin reagent that responds to reducing activity.

Another assay deals with LNCaP xenografts. Put plainly: LNCaP xenograft tumor volume in castrated NOD-SCID mice. The format is in vivo. On the procedure: Male NOD-SCID mice bearing subcutaneous tumors were castrated when tumor volume was approximately 100 mm3.
Tumors were measured using caliphers and the volume calculated by application of the formula (L×W×H)*0.5236.
Animals bearing LNCaP xenografts were dosed daily by oral gavage with 55.23 mg/kg body weight of Compound 7c or CMC/10% DMSO/Tween-20 vehicle control.
Tumors were measured using caliphers and the volume calculated by application of the formula (L×W×H)*0.5236Male

Setting [1] is: LNCaP cells transfected with PSA-luciferase plasmid, R1881 1 nM, 48 h, data of FIG. 9, read-out: IC50 (μM + Standard Deviation).
Setting [2] is: PSA-luc, mean, read-out: PSA-luc IC50s MEAN.

For the compound `CC(=O)O[C@H](CCl)COc1ccc(C(C)(C)c2ccc(OC[C@H](O)CO)cc2)cc1` [Compound 3c], the IC50 at androgen receptor (setting [1]) turned out to be 11.6 µM.
Still for that read-out and setting: next, `COC[C@H](O)COc1ccc(C(C)(C)c2ccc(OC[C@H](O)CCl)cc2)cc1` [Compound B, reference compound]: 9.8 µM.
In the case of `CC(C)(c1ccc(OC[C@H](O)CCl)cc1)c1ccc(OC[C@H](O)COC(=O)CN)cc1` [(S)-3-(4-(2-(4-((S)-3-chloro-2-hydroxypropoxy)phenyl)propan-2-yl)phenoxy)-2-hydroxypropyl 2-aminoacetate], the IC50 at androgen receptor (setting [2]) was determined as 12.1 µM.
For the compound `COC[C@@H](COc1ccc(C(C)(C)c2ccc(OC[C@@H](CCl)OC(C)=O)cc2)cc1)OC(C)=O` [Example 21, (S)-1-(4-(2-(4-((S)-2-acetoxy-3-chloropropoxy)phenyl)propan-2-yl)phenoxy)-3-methoxypropan-2-yl acetate], the IC50 at androgen receptor (setting [1]) was found to be 8.07 µM.
Still for that read-out and setting: next, `CC(=O)OC[C@@H](O)COc1ccc(C(C)(C)c2ccc(OC[C@H](O)CCl)cc2)cc1` [Compound 1c]: 25.6 µM.
Take `CC(C)(c1ccc(OC[C@@H](CCl)OC(=O)CCC(=O)O)cc1)c1ccc(OC[C@@H](COC(=O)CCC(=O)O)OC(=O)CCC(=O)O)cc1` [Example 13, (S)-3-(4-(2-(4-((S)-3-chloro-2-hydroxypropoxy)phenyl)propan-2-yl)phenoxy)propane-1,2-diol trisuccinate]: at androgen receptor (setting [2]), the IC50 turned out to be 60.2 µM.
As to `CC(=O)OC[C@H](COc1ccc(C(C)(C)c2ccc(OC[C@H](O)CCl)cc2)cc1)OC(C)=O` [Compound 4c, (S)-3-(4-(2-(4-((S)-3-chloro-2-hydroxypropoxy)phenyl)propan-2-yl)phenoxy)propane-1,2-diyl diacetate], on androgen receptor (setting [2]), the IC50 stood at 15.3 µM.
The same measure, in the same setting: with `CC(=O)OC[C@H](COc1ccc(C(C)(C)c2ccc(OC[C@H]3CO3)cc2)cc1)OC(C)=O` [Example 11, (S)-3-(4-(2-(4-((R)-oxiran-2-ylmethoxy)phenyl)propan-2-yl)phenoxy)propane-1,2-diyl diacetate] the figure was 26 µM.
As to `CC(=O)OC[C@H](COc1ccc(C(C)(C)c2ccc(OC[C@@H](CCl)OC(C)=O)cc2)cc1)OC(C)=O` [Compound 7c, (S)-3-(4-(2-(4-((S)-2-acetoxy-3-chloropropoxy)phenyl)propan-2-yl)phenoxy)propane-1,2-diyl diacetate], in the assay on LNCaP cells, the “potency in proliferation assay relative to active compound (compound A)” value is on record as “twice as potent”. The tumor volume entry is on record as “effective at reducing tumor volume” with LNCaP xenografts (Example 25, daily oral gavage, 10% DMSO/corn oil vehicle control, FIG. 11) and “effective at reducing tumor volume” with LNCaP xenografts (Example 26, 55.23 mg/kg body weight daily by oral gavage, CMC/10% DMSO/Tween-20 vehicle control, FIG. 12). Also, the “tumor volume reduction compared with compound A” value in the assay with LNCaP xenografts (Example 25, daily oral gavage, FIG. 11) is “more effective than its active compound”. Besides, the IC50 on androgen receptor (setting [1]) turned out to be 8.81 µM.
